Results as given in the supplement of paper PMC10307832.

Tests used:
Assay in all cases: relative viability (nuclei count vs DMSO), 5 days (fraction); higher = more cells survive
IU1-47 + Decitabine = compound: CC1=CC(=C(N1C2=CC=C(C=C2)Cl)C)C(=O)CN3CCCCC3 [IU1-47] + Nc1ncn([C@H]2C[C@H](O)[C@@H](CO)O2)c(=O)n1 [Decitabine] (partner 2 µM)
In short: (§1)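 Relative viability is defined as nuclei in treated wells over nuclei in vehicle wells. Duplicate plates were run and medians reported. Lung cancer cell lines in 1536-well plates were dosed by pin tool one day after seeding, with one drug or with a fixed anchor-drug dose plus five library-drug doses (not always all listed) in √10 steps, and nuclei were counted after 5 days.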

FG-4592 + AZD7762 = compound: Cc1nc(C(=O)NCC(=O)O)c(O)c2ccc(Oc3ccccc3)cc12 [FG-4592] + NC(=O)Nc1cc(-c2cccc(F)c2)sc1C(=O)N[C@H]1CCCNC1 [AZD7762] (partner 0.2 µM)
In short: as §1

FG-4592 + Trametinib = compound: Cc1nc(C(=O)NCC(=O)O)c(O)c2ccc(Oc3ccccc3)cc12 [FG-4592] + CC(=O)Nc1cccc(-n2c(=O)n(C3CC3)c(=O)c3c(Nc4ccc(I)cc4F)n(C)c(=O)c(C)c32)c1 [Trametinib] (partner 0.02 µM)
In short: as §1

IU1-47 + Pictilisib = compound: CC1=CC(=C(N1C2=CC=C(C=C2)Cl)C)C(=O)CN3CCCCC3 [IU1-47] + CS(=O)(=O)N1CCN(Cc2cc3nc(-c4cccc5[nH]ncc45)nc(N4CCOCC4)c3s2)CC1 [Pictilisib] (partner 1 µM)
In short: as §1

Cell Line	relative viability (IU1-47 + Decitabine; first compound 0.08 µM)	relative viability (IU1-47 + Decitabine; first compound 0.253 µM)	relative viability (IU1-47 + Decitabine; first compound 0.8 µM)	relative viability (IU1-47 + Decitabine; first compound 2.53 µM)	relative viability (IU1-47 + Decitabine; first compound 8 µM)	relative viability (FG-4592 + AZD7762; first compound 0.08 µM)	relative viability (FG-4592 + AZD7762; first compound 0.253 µM)	relative viability (FG-4592 + AZD7762; first compound 0.8 µM)	relative viability (FG-4592 + AZD7762; first compound 2.53 µM)	relative viability (FG-4592 + AZD7762; first compound 8 µM)	relative viability (FG-4592 + Trametinib; first compound 0.08 µM)	relative viability (FG-4592 + Trametinib; first compound 0.253 µM)	relative viability (FG-4592 + Trametinib; first compound 0.8 µM)	relative viability (FG-4592 + Trametinib; first compound 2.53 µM)	relative viability (FG-4592 + Trametinib; first compound 8 µM)	relative viability (IU1-47 + Pictilisib; first compound 0.08 µM)	relative viability (IU1-47 + Pictilisib; first compound 0.253 µM)	relative viability (IU1-47 + Pictilisib; first compound 0.8 µM)	relative viability (IU1-47 + Pictilisib; first compound 2.53 µM)	relative viability (IU1-47 + Pictilisib; first compound 8 µM)
HCC-827	0.336	0.323	0.351	0.31	0.31	0.23	0.173	0.326	0.184	0.22	0.495	0.491	0.48	0.532	0.506	1.27	1.1	1.14	0.957	1.1
HOP-62	0.233	0.218	0.224	0.247	0.208	0.501	0.509	0.476	0.472	0.529	0.399	0.354	0.353	0.392	0.334	0.966	0.891	0.818	0.494	0.524
IA-LM																0.333	0.374	0.306	0.394	0.348
LC-2-ad	0.996	0.788	0.792		0.78	0.912	0.833	0.831	0.817	0.83	0.896	0.675	0.953	0.842	0.967	0.428	0.509	0.427	0.423	0.45
LCLC-97TM1	0.287	0.252	0.244		0.234	0.255	0.173	0.274	0.132	0.315	0.211	0.241		0.225	0.148	0.194	0.258	0.204		0.165
LCLC-103H	0.793	0.731	0.724	0.725	0.751	0.609	0.741	0.635	0.785	0.686	0.713	0.582	0.684	0.684	0.69	0.586	0.566	0.624	0.509	0.639
LK-2	0.354	0.35	0.34	0.372	0.179	0.273	0.355		0.358	0.342	0.599	0.661	0.628	0.621	0.516	0.606	0.614	0.615	0.412	0.474
NCI-H520	0.484	0.507	0.469	0.513	0.416						0.594	0.557	0.573	0.719	0.473	0.303	0.297	0.378	0.331	0.237
NCI-H522	0.67	0.64	0.739	0.763	0.634	0.78	0.717		0.666	0.819	0.798	0.712		0.676	0.873					
NCI-H661	0.531	0.575	0.596	0.556	0.503						0.559	0.525	0.536	0.554	0.525	0.376	0.406	0.414	0.349	0.363
NCI-H1299																0.893	0.881	0.749	1.05	0.911
NCI-H1563																0.69	0.672	0.663	0.627	0.732
NCI-H1648	0.546	0.496	0.664	0.387	0.444	0.622	0.662		0.714	0.921	0.485	0.445		0.456	0.493					
NCI-H1650	0.474	0.593	0.391	0.366	0.445						0.604	0.573	0.615	0.603	0.628	0.634	0.587	0.682	0.295	0.27
NCI-H1703						0.138	0.135	0.12		0.126						0.254	0.255	0.218	0.32	0.25
NCI-H2009	0.36	0.448	0.366	0.382	0.406						0.32	0.181	0.262	0.31	0.162	0.876	0.948	0.815	0.369	0.882
NCI-H2023	0.182	0.212	0.215	0.248	0.225						0.488	0.595	0.612	0.593	0.506	0.22	0.214	0.274	0.178	0.182
NCI-H2228											0.497	0.503	0.494	0.406	0.208	0.497	0.506	0.28	0.28	0.229
NCI-H2342	0.81	0.766	0.755	0.688	0.747	0.456	0.459	0.526	0.403	0.438	0.755	0.841	0.746	0.738	0.641					
SK-LU-1	0.57	0.695	0.692	0.56	0.543						0.402	0.395	0.461	0.422	0.379	0.668	0.728	0.578	0.58	0.382
SK-MES-1	0.329	0.405	0.3	0.409	0.38						0.604	0.515	0.521	0.623	0.571	0.402	0.396	0.351	0.398	0.371
SW 900	0.414		0.447	0.452	0.353		0.545		0.614	0.541		0.819		0.871	0.619					
SW 1573	0.529	0.599	0.542	0.342	0.506						0.611	0.62	0.616	0.531	0.391	0.524	0.563	0.391	0.553	0.471
